Reference: patent US12065436B2, “Cardiac sarcomere inhibitors” (Cytokinetics, Inc., priority 2018, dated 2024)

Molecular target: bovine cardiac myofibrils (full-length cardiac myosin ATPase in the native sarcomere) (Bos taurus (Bovine), UniProt Q9BE39)
Test: Skinned bovine cardiac myofibril ATPase assay (PK/LDH-coupled)
Assay type: biochemical
Settings: Ca2+ activating to 75% of maximal rate; for CDMF75 IC15: concentration giving 15% inhibition; for IC50: read-out: CDMF75 IC50
How it was run: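 Inhibition of steady-state ATPase read at 340 nm through a PK/LDH-coupled NADH system (0.5 mM NADH, 1.5 mM PEP). Detergent-skinned bovine cardiac myofibrils, 1 mg/mL, were tested at pH 6.8 in PIPES/MgCl2 with 50 μM ATP and calcium adjusted to give pCa50 or pCa75 activation.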

Chain of bovine cardiac myofibrils (full-length cardiac myosin ATPase in the native sarcomere) (Q9BE39 whole entry): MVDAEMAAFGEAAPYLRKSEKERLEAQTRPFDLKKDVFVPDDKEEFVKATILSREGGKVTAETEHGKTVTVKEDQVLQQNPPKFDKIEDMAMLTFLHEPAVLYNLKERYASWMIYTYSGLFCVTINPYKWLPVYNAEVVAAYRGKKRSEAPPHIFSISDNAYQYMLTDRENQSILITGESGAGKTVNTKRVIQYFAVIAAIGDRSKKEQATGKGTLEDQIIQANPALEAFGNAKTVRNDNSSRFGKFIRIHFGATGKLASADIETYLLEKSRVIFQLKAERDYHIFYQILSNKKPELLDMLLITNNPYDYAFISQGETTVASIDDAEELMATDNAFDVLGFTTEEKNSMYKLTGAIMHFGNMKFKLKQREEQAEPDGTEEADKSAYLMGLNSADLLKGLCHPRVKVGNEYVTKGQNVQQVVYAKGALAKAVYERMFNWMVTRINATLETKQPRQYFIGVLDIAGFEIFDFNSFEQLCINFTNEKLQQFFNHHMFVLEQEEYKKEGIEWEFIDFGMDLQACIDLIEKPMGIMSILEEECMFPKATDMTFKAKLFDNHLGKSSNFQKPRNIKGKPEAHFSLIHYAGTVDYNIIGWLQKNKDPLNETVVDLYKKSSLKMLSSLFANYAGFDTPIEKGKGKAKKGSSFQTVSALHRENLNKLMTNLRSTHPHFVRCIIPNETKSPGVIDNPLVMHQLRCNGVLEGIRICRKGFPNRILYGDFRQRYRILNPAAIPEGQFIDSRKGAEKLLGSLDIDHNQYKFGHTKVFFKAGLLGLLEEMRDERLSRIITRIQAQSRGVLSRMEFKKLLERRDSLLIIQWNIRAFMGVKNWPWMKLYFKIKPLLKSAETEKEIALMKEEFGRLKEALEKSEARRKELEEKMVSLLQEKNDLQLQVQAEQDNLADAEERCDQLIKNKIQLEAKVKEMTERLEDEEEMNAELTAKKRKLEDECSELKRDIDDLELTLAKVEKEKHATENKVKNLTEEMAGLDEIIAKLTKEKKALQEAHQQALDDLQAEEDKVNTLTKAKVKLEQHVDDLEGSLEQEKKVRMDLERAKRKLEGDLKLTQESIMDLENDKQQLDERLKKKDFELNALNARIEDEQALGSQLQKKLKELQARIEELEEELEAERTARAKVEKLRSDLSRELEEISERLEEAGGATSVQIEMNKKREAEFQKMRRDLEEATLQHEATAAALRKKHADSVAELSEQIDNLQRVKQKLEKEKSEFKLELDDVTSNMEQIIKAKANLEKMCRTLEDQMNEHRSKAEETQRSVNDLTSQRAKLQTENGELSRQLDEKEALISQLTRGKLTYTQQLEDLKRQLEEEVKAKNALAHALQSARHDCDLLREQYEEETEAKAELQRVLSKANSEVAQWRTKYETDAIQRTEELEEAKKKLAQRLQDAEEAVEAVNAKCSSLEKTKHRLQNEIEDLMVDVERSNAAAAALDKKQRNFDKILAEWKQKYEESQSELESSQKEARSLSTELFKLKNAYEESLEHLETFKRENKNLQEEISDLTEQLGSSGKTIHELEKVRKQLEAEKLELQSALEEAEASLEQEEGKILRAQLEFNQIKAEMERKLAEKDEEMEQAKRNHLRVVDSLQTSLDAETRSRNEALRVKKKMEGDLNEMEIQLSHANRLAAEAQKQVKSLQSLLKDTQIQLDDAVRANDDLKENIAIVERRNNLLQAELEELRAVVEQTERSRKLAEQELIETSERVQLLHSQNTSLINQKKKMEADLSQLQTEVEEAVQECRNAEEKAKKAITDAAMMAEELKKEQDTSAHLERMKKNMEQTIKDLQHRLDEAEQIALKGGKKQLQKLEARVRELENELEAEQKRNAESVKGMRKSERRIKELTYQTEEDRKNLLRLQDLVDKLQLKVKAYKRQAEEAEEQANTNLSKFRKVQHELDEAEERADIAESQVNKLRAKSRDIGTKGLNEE
Chain of bovine cardiac myofibrils (full-length cardiac myosin ATPase in the native sarcomere) (P85100 whole entry partner): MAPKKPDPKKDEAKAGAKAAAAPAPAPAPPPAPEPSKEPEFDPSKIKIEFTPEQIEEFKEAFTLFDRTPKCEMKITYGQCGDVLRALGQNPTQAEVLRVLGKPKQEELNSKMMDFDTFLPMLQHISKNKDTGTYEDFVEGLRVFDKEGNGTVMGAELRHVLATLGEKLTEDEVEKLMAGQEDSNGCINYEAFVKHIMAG
Chain of bovine cardiac myofibrils (full-length cardiac myosin ATPase in the native sarcomere) (Q3SZE5 whole entry partner): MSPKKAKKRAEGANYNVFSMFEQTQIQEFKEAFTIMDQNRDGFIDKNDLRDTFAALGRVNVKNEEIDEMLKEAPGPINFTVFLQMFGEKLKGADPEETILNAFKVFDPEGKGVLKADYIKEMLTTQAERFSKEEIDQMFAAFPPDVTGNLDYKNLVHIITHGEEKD

Compound | CDMF75 IC15 | IC50
COCc1nc(-c2ccc3c(c2)CC[C@H]3NC(=O)c2cccc(CO)c2)no1 [Compound 668, (R)-3-(hydroxymethyl)-N-(5-(5-(methoxymethyl)-1,2,4-oxadiazol-3-yl)-2,3-dihydro-1H-inden-1-yl)benzamide] | 600 nM | 2200 nM
COCc1nc(-c2ccc3c(c2)CC[C@H]3NC(=O)c2cccc(CO)c2)no1 [Compound 669, (R)-3-(hydroxymethyl)-N-(5-(5-(methoxymethyl)-1,2,4-oxadiazol-3-yl)-2,3-dihydro-1H-inden-1-yl)benzamide] | 500 nM | 2300 nM
COCc1nc(-c2ccc3c(c2)CC[C@H]3NC(=O)c2cccc(CO)c2F)no1 [Compound 670, (R)-2-fluoro-3-(hydroxymethyl)-N-(5-(5-(methoxymethyl)-1,2,4-oxadiazol-3-yl)-2,3-dihydro-1H-inden-1-yl)benzamide] | 5800 nM | 26600 nM
COCc1nc(-c2ccc3c(c2)CC[C@H]3NC(=O)c2cc(CO)ccc2F)no1 [Compound 671, (R)-2-fluoro-5-(hydroxymethyl)-N-(5-(5-(methoxymethyl)-1,2,4-oxadiazol-3-yl)-2,3-dihydro-1H-inden-1-yl)benzamide] | 6500 nM | 30200 nM
COCc1nc(-c2ccc3c(c2)CC[C@H]3NC(=O)c2cc(CO)ccn2)no1 [Compound 672, (R)-4-(hydroxymethyl)-N-(5-(5-(methoxymethyl)-1,2,4-oxadiazol-3-yl)-2,3-dihydro-1H-inden-1-yl)picolinamide] | 3200 nM | 13700 nM
COCc1nc(-c2ccc3c(c2)CC[C@H]3NC(=O)c2cc(CO)ccn2)no1 [Compound 673, (R)-4-(hydroxymethyl)-N-(5-(5-(methoxymethyl)-1,2,4-oxadiazol-3-yl)-2,3-dihydro-1H-inden-1-yl)picolinamide] | 2800 nM | 13000 nM
O=C(N[C@@H]1CCc2cc(-c3noc(C(F)F)n3)ccc21)c1cc(O)no1 [Compound 674, (R)-N-(5-(5-(difluoromethyl)-1,2,4-oxadiazol-3-yl)-2,3-dihydro-1H-inden-1-yl)-3-hydroxyisoxazole-5-carboxamide] | 1900 nM | 7400 nM
Cc1c(C(=O)N[C@@H]2CCc3cc(-c4noc(C(F)F)n4)ccc32)cnn1CCO [Compound 675, (R)-N-(5-(5-(difluoromethyl)-1,2,4-oxadiazol-3-yl)-2,3-dihydro-1H-inden-1-yl)-1-(2-hydroxyethyl)-5-methyl-1H-pyrazole-4-carboxamide] | 800 nM | 2700 nM
Cc1ncc(C(=O)N[C@@H]2CCc3cc(-c4noc(C(F)F)n4)ccc32)s1 [Compound 676, (R)-N-(5-(5-(difluoromethyl)-1,2,4-oxadiazol-3-yl)-2,3-dihydro-1H-inden-1-yl)-2-methylthiazole-5-carboxamide] | 500 nM | 1800 nM
Cc1nocc1C(=O)N[C@@H]1CCc2cc(-c3noc(C(F)F)n3)ccc21 [Compound 677, (R)-N-(5-(5-(difluoromethyl)-1,2,4-oxadiazol-3-yl)-2,3-dihydro-1H-inden-1-yl)-3-methylisoxazole-4-carboxamide] | 300 nM | 900 nM
Cc1ncc(C(=O)N[C@@H]2CCc3cc(-c4noc(C(F)F)n4)ccc32)n1C [Compound 678, (R)-N-(5-(5-(difluoromethyl)-1,2,4-oxadiazol-3-yl)-2,3-dihydro-1H-inden-1-yl)-1,2-dimethyl-1H-imidazole-5-carboxamide] | 700 nM | 2300 nM
Cc1cc(C(=O)N[C@@H]2CCc3cc(-c4noc(C(F)F)n4)ccc32)on1 [Compound 679, (R)-N-(5-(5-(difluoromethyl)-1,2,4-oxadiazol-3-yl)-2,3-dihydro-1H-inden-1-yl)-3-methylisoxazole-5-carboxamide] | 800 nM | 3000 nM
